Measured values from US10323041B2, “Bicyclic derivatives, a process for their preparation and pharmaceutical compositions containing them” (LES LABORATOIRES SERVIER, priority 2015, dated 2019).

Target: Mcl-1 protein (Homo sapiens, UniProt Q07820)
Test: Inhibition of Mcl-1 by the fluorescence polarisation technique
Format: binding
Details: for IC50: Method 1 (not underlined) or Method 2 (underlined), underlining not visible, first value where cell prints two, read-out: IC50 (M) Mcl-1 FP; for percentage fluorescence polarization inhibition: @ 50 μM test compound, partial inhibitors
Experimental: The relative binding potency of each compound was determined via fluorescence Polarisation (FP). The method utilised a Fluorescein labelled ligand Fluorescein-βAla-Ahx-[A-REIGAQLRRMADDLNAQY (SEQ ID NO: 1)]-OH; mw 2,765) which binds to the Mcl-1 protein (such that corresponds to the UniProtKB® primary accession number: Q07820) leading to an increased anisotropy measured in milli-polarisation (mP) units using a reader. The addition of a compound which binds competitively to the same site as the ligand will result in a greater proportion of unbound ligand in the system indicated by a decrease in mP units.
Method 1: An 11 point serial dilution of each compound was prepared in DMSO and 2 μl transferred into flat bottomed, low binding, 384-well plate (final DMSO concentration 5%). 38 μl of buffer (10 mM 4-(2-hydroxyethyl)-1-piperazineethanesulfonic acid [HEPES], 150 mM NaCl, 0.05% Tween 20, pH 7.4), containing the Fluorescein labelled ligand (final concentration 1 nM) and Mcl-1 protein (final concentration 5 nM) was then added.
(§1) Assay plates were incubated ˜2 hours at room temperature before FP was measured on a […] Synergy2 reader (Ex. 528 nm, Em. 640 nm, Cut off 510 nm) and mP units calculated. The binding of increasing doses of test compound was expressed as a percentage reduction in mP compared to a window established between ‘5% DMSO only’ and ‘100% inhibition’ controls. 11-point dose response curves were plotted with XL-Fit software using a 4-Parameter Logistic Model (Sigmoidal Dose-Response Model) and the inhibitory concentrations that gave a 50% reduction in mP (IC50) were determined. Results obtained using Method 1 are presented in Table 1 below; IC50 of Mcl-1 inhibition obtained using Method 1 are not underlined.
Method 2: An 11 point serial dilution of each compound was prepared in DMSO and 2 μl transferred into flat bottomed, low binding, 384-well plate (final DMSO concentration 5%). 38 μl of buffer (20 mM Na2HPO4, 1 mM EDTA, 50 mM NaCl, pH 7.4), containing the Fluorescein labelled ligand (final concentration 10 nM) and Mcl-1 protein (final concentration 10 nM) was then added.
as §1, with “inhibition’ controls (50 μM unlabelled ligand).” for “inhibition’ controls.”, “Method 2” for “Method 1”, “are” for “are not”

Mcl-1 protein, sequence (Q07820 whole entry): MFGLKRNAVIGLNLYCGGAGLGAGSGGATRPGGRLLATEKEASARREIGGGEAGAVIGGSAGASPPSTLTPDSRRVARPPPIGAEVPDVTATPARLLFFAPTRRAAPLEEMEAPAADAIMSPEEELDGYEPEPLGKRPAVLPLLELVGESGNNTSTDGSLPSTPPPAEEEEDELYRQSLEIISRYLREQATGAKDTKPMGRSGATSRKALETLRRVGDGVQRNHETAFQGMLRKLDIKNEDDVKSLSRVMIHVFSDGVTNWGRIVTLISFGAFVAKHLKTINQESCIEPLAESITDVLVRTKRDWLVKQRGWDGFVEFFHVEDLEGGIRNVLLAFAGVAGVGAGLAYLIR

SMILES	IC50 [M]	percentage fluorescence polarization inhibition [% @ 50 μM]
CCc1c(-c2cccc3ccccc23)c2c(N[C@H](Cc3ccccc3)C(=O)O)ncnc2n1CCOc1cccc2ccccc12 (single isomer, unassigned) [Example 14, N-{6-ethyl-5-(naphthalen-1-yl)-7-[2-(naphthalen-1-yloxy)ethyl]-7H-pyrrolo[2,3-d]pyrimidin-4-yl}-D-phenylalanine]	1.2e-05	
Cc1c(-c2cn(Cc3ccccc3)c3ncnc(O[C@H](Cc4ccccc4)C(=O)O)c23)ccc(OCCN2CCN(C)CC2)c1Cl [Example 45, (2R)-2-[(7-benzyl-5-{3-chloro-2-methyl-4-[2-(4-methylpiperazin-1-yl)ethoxy]phenyl}-7H-pyrrolo[2,3-d]pyrimidin-4-yl)oxy]-3-phenylpropanoic acid]	1.8e-06	
CCc1sc2cccc(OC(Cc3ccccc3)C(=O)O)c2c1-c1ccc(O)c(Cl)c1C [Example 49, (2R)-2-{[(3Sa)-3-(3-chloro-4-hydroxy-2-methylphenyl)-2-ethyl-1-benzothiophen-4-yl]oxy}-3-phenylpropanoic acid]	3.9e-08	
CCc1c(-c2cccc(Cl)c2C)c2c(NC(Cc3ccccc3)C(=O)O)ncnc2n1CC1CC1 [Example 22, N-[(5Ra)-5-(3-chloro-2-methylphenyl)-7-(cyclopropylmethyl)-6-ethyl-7H-pyrrolo[2,3-d]pyrimidin-4-yl]-D-phenylalanine]		74.2
C=CCn1c(Br)c(-c2cccc(Cl)c2C)c2c(NC(Cc3ccccc3)C(=O)O)ncnc21 [Example 43, N-[6-bromo-(5Ra)-5-(3-chloro-2-methylphenyl)-7-(prop-2-en-1-yl)-7H-pyrrolo[2,3-d]pyrimidin-4-yl]-D-phenylalanine]		66.9
CCc1c(-c2cccc3ccccc23)c2c(N[C@H](Cc3ccccc3)C(=O)O)ncnc2n1CCc1ccccc1 (single isomer, unassigned) [Example 17, N-[6-ethyl-5-(naphthalen-1-yl)-7-(2-phenylethyl)-7H-pyrrolo[2,3-d]pyrimidin-4-yl]-D-phenylalanine]	3.8e-06	
CCc1c(-c2cccc(Cl)c2C)c2c(NC(Cc3ccccc3)C(=O)O)ncnc2n1CC1CC1 [Example 23, N-[(5Sa)-5-(3-chloro-2-methylphenyl)-7-(cyclopropylmethyl)-6-ethyl-7H-pyrrolo[2,3-d]pyrimidin-4-yl]-D-phenylalanine]	6.8e-06	
CCc1c(-c2cccc3ccccc23)c2c(N[C@H](Cc3ccccc3)C(=O)O)ncnc2n1CCCc1ccccc1 (single isomer, unassigned) [Example 19, N-[6-ethyl-5-(naphthalen-1-yl)-7-(3-phenylpropyl)-7H-pyrrolo[2,3-d]pyrimidin-4-yl]-D-phenylalanine]	3.3e-06	
CC#CCn1c(CC)c(-c2cccc(Cl)c2C)c2c(NC(Cc3ccccc3)C(=O)O)ncnc21 (single isomer, unassigned) [Example 27, N-[7-(but-2-yn-1-yl)-(5Sa)-5-(3-chloro-2-methylphenyl)-6-ethyl-7H-pyrrolo[2,3-d]pyrimidin-4-yl]-D-phenylalanine]	3.3e-07	
CCc1c(-c2cccc3ccccc23)c2c(N[C@H](Cc3ccccc3)C(=O)O)ncnc2n1CCc1ccccc1 (single isomer, unassigned) [Example 16, N-[6-ethyl-5-(naphthalen-1-yl)-7-(2-phenylethyl)-7H-pyrrolo[2,3-d]pyrimidin-4-yl]-D-phenylalanine]	1.8e-06	
CCc1c(-c2cccc(Cl)c2C)c2c(NC(Cc3ccccc3)C(=O)O)ncnc2n1Cc1ccc(OC)cc1 (single isomer, unassigned) [Example 34, N-[(5Ra)-5-(3-chloro-2-methylphenyl)-6-ethyl-7-(4-methoxybenzyl)-7H-pyrrolo[2,3-d]pyrimidin-4-yl]-D-phenylalanine]	6.4e-06	
